From patent publication US10421755B2, “Salts of aza-bicyclic di-aryl ethers and methods to make them or their precursors” (Novartis AG, priority 2011, dated 2019)
“And” between values parts separate entries of the source, which are not always exact repeats. Equal values may be shown once.

What was measured:
[1] = Oral bioavailability in dogs; format: in vivo, beagle dogs; settings: 1.4 μmol/kg p.o.
Experimental: Assay: The compound was given to N=3 male beagle dogs in tritiated form:
The concentration of the compound in blood was determined by LC-RID. The procedure involved the addition of 5 μg of the compound as internal standard (200 μL of solution containing 25 μg/mL of the compound) to 1 mL of blood. After further addition of 1 mL of water, 0.1 mL of buffer pH 9 and 4 mL of tert-butylmethylether, the samples were shaken for 30 min and centrifuged (4000 g for 10 min at 22° C.). The organic phase was transferred into a tube and evaporated in a Speedvac. The residue was reconstituted in 250 μL of mobile phase-water (80:20 v/v) followed by 75 μL of n-hexane and transferred into an autosampler vial. After centrifugation (13,000 g for 2 min at 22° C.), the hexane layer was pipetted off and discarded, 200 μL of the remainder was injected onto an RP18 column (Waters XTerra, 5 μm, 3.9×150 mm at 40° C.) to separate the compound from potential metabolites and endogenous compounds. The mobile phase of ammonium acetate (10 mM: 0.1% v/v TFA-acetonitrile, 58:42 v/v) was used at a flow rate of 1.0 mL/min. The effluent was monitored by a UV-detector set at 261 nm. The peak corresponding to the unchanged compound was collected in a polyethylene vial by a fraction collector (SuperFrac, Pharmacia LKB) and analyzed for radioactivity. The concentration of the compound in each sample was calculated from the ratio of the amount of radioactivity in the eluate fraction to the area of the ultraviolet absorbance of the non-radiolabeled the compound, that was used as the internal standard.

[2] = Pharmacokinetics in rats after oral administration; format: in vivo, Wistar rats; settings: 10 mg/kg oral
Experimental: If a salt forming agent is used (e.g. fumarate), a corresponding higher amount of the salt will be used to achieve the intended dosing.
Both compounds were dissolved in Klucel™ (0.5% in water) and were orally administered by gavage (5 ml/kg) to conscious rats (n=8, cross-over design).
K3-EDTA blood (˜0.2 ml) was collected by puncture of a sublingual vein under light isoflurane anesthesia at the following time points: 0.25, 0.5, 1, 2, 3, 4, 6, 8, 24 h post dose. Immediately after sampling, blood samples were put on ice and were processed to plasma by centrifugation at 4° C. within 15 min after sampling (1000 g, 10 min, 4° C.) to obtain ˜100 μl plasma/sample. All plasma samples were stored at −80° C. until analysis. Since the PK study was performed in a cross-over design, a recovery period of approximately 2 weeks took place before the next treatment/blood sampling was performed.
The determination of compounds in plasma was done by LC-MS/MS using electrospray ionization.

[3] = Hygroscopicity (moisture gain at relative humidity); format: physicochemical; design: Hygroscopy @ 85% RH: unit not given here
[4] = Loss on drying / initial water content; format: physicochemical; design: Initial water content: unit not given here
[5] = Stability in buffer solutions and in solid state; format: physicochemical
[6] = Decomposition temperature; format: physicochemical; design: unit not given here; settings: comparison table, Example 7
[7] = Known multiple solid forms; format: physicochemical; settings: comparison table, Example 7
[8] = Particle size measurements by Fraunhofer light diffraction; format: physicochemical; settings: N=8
Experimental: Mean particle sizes, X90 and X10 are typically measured by Fraunhofer light diffraction.
To about 0.5 g of test substance add some drops of the dispersing aid (1% Octastat 5000 (Octel Corp.) in white spirit (Sangajol, Schweizerhall Chemie)). Mix intensively on a vortex mixer, in order to wet the substance thoroughly and to form a smooth and homogeneous paste. Dilute the paste with white spirit to a final volume of 3-6 ml and mix the dispersion again. Determine the cumulative volume distribution using a laser diffraction instrument, e.g. determine the particle sizes at the undersize values of 10%, 50% and 90% (x10, x50, x90). Measuring device: Sympatec HELOS (Sympatec GmbH; focal length: 500 mm, optical concentration≥5%, duration of measurement: 40 sec).
Dispersion device: Suspension cell (QUIXEL, Sympatec GmbH).

[9] = Stability of the active ingredient in tablets; format: physicochemical; settings: tablets where only certain lubricants are used
Experimental: It is particularly important that the active ingredient remains chemically stable over a potential long shelf time. When assessing storage stability, relative amounts of individual degradation products compared to the total amount of active ingredient are taken into consideration. Individual degradation products should all be present in low relative amounts to ensure that no single product can reach a non-acceptable level, e.g. when the active ingredient is administered in high doses.

[10] = male Wistar rats (n=8), mean (text: ± SD)
[11] = male Wistar rats, individual rats 01-08, listed as mono-fumarate, 10 mg/kg

SMILES: Cc1ccc(-c2ccc(O[C@H]3CN4CCC3CC4)cn2)cc1.O=C(O)/C=C/C(=O)O [Compound B, (R)-3-(6-(4-methylphenyl)-pyridin-3-yloxy)-1-aza-bicyclo[2.2.2]octane hydrogenfumarate]
- Plasma (pmoles/ml ± SD) ([1]; 0.25 hour): 14.7 ± 1.1 pmol/mL
- Plasma (pmoles/ml ± SD) ([1]; 0.5 hour): 49.4 ± 21.9 pmol/mL
- Plasma (pmoles/ml ± SD) ([1]; 1 hour): 67.6 ± 22.6 pmol/mL
- Plasma (pmoles/ml ± SD) ([1]; 2 hour): 75.2 ± 36.8 pmol/mL
- Plasma (pmoles/ml ± SD) ([1]; 4 hour): 27.5 ± 13.3 pmol/mL
- Plasma (pmoles/ml ± SD) ([1]; 8 hour): 8.1 ± 3.0 pmol/mL
- Plasma (pmoles/ml ± SD) ([1]; 24 hour): 0.8 ± 0.7 pmol/mL
- Concentration of free form in plasma, Mean All ([2]; male Wistar rats (n=8), 0.25 h, mean): 149 ng/mL
- Concentration of free form in plasma, Mean All ([2]; male Wistar rats (n=8), 0.5 h, mean): 132 ng/mL
- Concentration of free form in plasma, Mean All ([2]; male Wistar rats (n=8), 1 h, mean): 77.4 ng/mL
- Concentration of free form in plasma, Mean All ([2]; male Wistar rats (n=8), 2 h, mean): 38.9 ng/mL
- Concentration of free form in plasma, Mean All ([2]; male Wistar rats (n=8), 3 h, mean): 19.5 ng/mL
- Concentration of free form in plasma, Mean All ([2]; male Wistar rats (n=8), 4 h, mean): 10.6 ng/mL
- Concentration of free form in plasma, Mean All ([2]; male Wistar rats (n=8), 6 h, mean): 5.10 ng/mL
- Concentration of free form in plasma, Mean All ([2]; male Wistar rats (n=8), 8 h, mean): 2.54 ng/mL
- Concentration of free form in plasma, Mean All ([2]; male Wistar rats (n=8), 24 h, mean): 0.320 ng/mL
- Tmax (h), all rats ([2]; male Wistar rats (n=8), Median [range], listed as mono-fumarate): 0.25 [0.25-0.50]^a h
- Cmax/Dose (ng/mL)/(mg/kg), Mean All ([2]; male Wistar rats (n=8), mean): 16.5 (ng/mL)/(mg/kg)
- AUClast (h · ng/mL), Mean All [2, 10]: 249 ± 42 ng·h/mL
- Cmax (ng/mL), Mean All [2, 10]: 161 ± 53 ng/mL
- Concentration of free form in plasma ([2]; male Wistar rats, 0.25 h, individual rats 01-08): 89.0 ng/mL
- Concentration of free form in plasma ([2]; male Wistar rats, 0.25 h, individual rats 01-08, listed as mono-fumarate, 10 mg/kg): 167 ng/mL and 162 ng/mL and 77.8 ng/mL and 242 ng/mL and 204 ng/mL and 93.3 ng/mL and 153 ng/mL
- Concentration of free form in plasma ([2]; male Wistar rats, 0.5 h, individual rats 01-08): 130 ng/mL
- Concentration of free form in plasma ([2]; male Wistar rats, 0.5 h, individual rats 01-08, listed as mono-fumarate, 10 mg/kg): 104 ng/mL and 78.4 ng/mL and 99.7 ng/mL and 143 ng/mL and 179 ng/mL and 184 ng/mL and 138 ng/mL
- Concentration of free form in plasma ([2]; male Wistar rats, 1 h, individual rats 01-08, listed as mono-fumarate, 10 mg/kg): 67.1 ng/mL and 88.8 ng/mL and 41.3 ng/mL and 62.8 ng/mL and 83.2 ng/mL and 80.8 ng/mL and 101 ng/mL and 94.2 ng/mL
- Concentration of free form in plasma ([2]; male Wistar rats, 2 h, individual rats 01-08, listed as mono-fumarate, 10 mg/kg): 27.4 ng/mL and 39.2 ng/mL and 37.8 ng/mL and 24.6 ng/mL and 47.1 ng/mL and 37.6 ng/mL and 54.8 ng/mL and 42.6 ng/mL
- Concentration of free form in plasma ([2]; male Wistar rats, 3 h, individual rats 01-08, listed as mono-fumarate, 10 mg/kg): 12.4 ng/mL and 17.7 ng/mL and 25.3 ng/mL and 11.7 ng/mL and 19.6 ng/mL and 20.6 ng/mL and 25.1 ng/mL and 23.2 ng/mL
- Concentration of free form in plasma ([2]; male Wistar rats, 4 h, individual rats 01-08, listed as mono-fumarate, 10 mg/kg): 9.06 ng/mL and 10.6 ng/mL and 13.3 ng/mL and 5.90 ng/mL and 9.71 ng/mL and 11.8 ng/mL and 13.0 ng/mL and 11.1 ng/mL
- Concentration of free form in plasma ([2]; male Wistar rats, 6 h, individual rats 01-08, listed as mono-fumarate, 10 mg/kg): 7.49 ng/mL and 3.47 ng/mL and 7.63 ng/mL and 5.79 ng/mL and 4.29 ng/mL and 4.24 ng/mL and 4.05 ng/mL and 3.87 ng/mL
- Concentration of free form in plasma ([2]; male Wistar rats, 8 h, individual rats 01-08, listed as mono-fumarate, 10 mg/kg): 2.91 ng/mL and 2.35 ng/mL and 3.62 ng/mL and 2.62 ng/mL and 2.46 ng/mL and 1.94 ng/mL and 2.38 ng/mL and 2.07 ng/mL
- AUClast [2, 11]: 202 ng·h/mL and 259 ng·h/mL and 212 ng·h/mL and 188 ng·h/mL and 269 ng·h/mL and 292 ng·h/mL and 298 ng·h/mL and 272 ng·h/mL
- Cmax [2, 11]: 167 ng/mL and 162 ng/mL and 78.4 ng/mL and 99.7 ng/mL and 242 ng/mL and 204 ng/mL and 184 ng/mL and 153 ng/mL
- Cmax/Dose (ng/mL)/(mg/kg) [2, 11]: 17.2 (ng/mL)/(mg/kg) and 16.4 (ng/mL)/(mg/kg) and 7.88 (ng/mL)/(mg/kg) and 10.2 (ng/mL)/(mg/kg) and 25.2 (ng/mL)/(mg/kg) and 21.1 (ng/mL)/(mg/kg) and 18.3 (ng/mL)/(mg/kg) and 15.7 (ng/mL)/(mg/kg)
- Tlast [2, 11]: 8.0 h (2×) and 24.0 h (6×)
- Tmax [2, 11]: 0.25 h (5×) and 0.50 h (3×)
- T½ [2, 11]: 2.44 h and 5.02 h and 3.62 h and 3.71 h and 2.02 h and 3.97 h and 5.51 h
- T½ (h), Mean All ([2]; male Wistar rats, mean): 3.76 h
- hygroscopicity (in words) [3]: slightly hygroscopic
- moisture gain ([3]; at 85% relative humidity (RH)): 0.5%
- Hygroscopy @ 85% RH ([3]; comparison table, Example 7): 0.5
- Loss on drying (LOD) of a sample [4]: < 0.03%
- Initial water content ([4]; comparison table, Example 7): <0.5
- solid-state stability [5]: good
- stability in buffer solutions ([5]; many buffer solutions, various pH values): good stability
- Decomposition temperature [6]: 207
- Known Multiple forms [7]: No
- particle size x10 [8]: 5.6±0.5 μm
- particle size x50 (mean particle size) [8]: 26.8±1.3 μm
- particle size x90 [8]: 77.3±3.3 μm
- stability in tablets [9]: very stable
